Measurements published in patent US20110173718A1, “HERBICIDE TOLERANT PLANTS” (SYNGENTA CROP PROTECTION, INC., priority 2008, published 2011).
“And” between values parts separate entries of the source, which are not always exact repeats. Equal entries are not always repeated. Where two headings read alike, the source gives them in different places. Marks after values point to notes of the source that are not given here.

Experiments:
[1] = target: T1, Chlamydomonas HST (Chlamydomonas reinhardtii, UniProt A1JHN0); experiment: HST assay (TLC, MFBQ formed), recombinant Chlamydomonas HST in E. coli membranes; type: biochemical; conditions: for inhibition at 25 ppm: read-out: Chlamydomonas. HST % I at 25 ppm
T1 construct: GST (N); made in house; host or cells: E. coli (BL21A1 / BL21DE3), membrane fraction
T1 sequence (A1JHN0 51-370): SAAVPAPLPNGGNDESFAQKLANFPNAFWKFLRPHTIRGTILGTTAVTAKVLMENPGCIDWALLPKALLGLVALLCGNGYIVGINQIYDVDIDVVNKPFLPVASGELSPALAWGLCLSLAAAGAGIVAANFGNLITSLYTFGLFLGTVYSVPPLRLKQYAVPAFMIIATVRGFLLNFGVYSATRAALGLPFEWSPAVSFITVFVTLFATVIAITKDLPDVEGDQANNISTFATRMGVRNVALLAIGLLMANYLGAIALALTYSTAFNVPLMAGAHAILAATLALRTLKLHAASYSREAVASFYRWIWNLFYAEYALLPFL
Outline: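 Recombinant GST-fused Chlamydomonas HST in E. coli membranes was incubated with 200 μM farnesyl diphosphate and 100 μM 14C-homogentisate in 50 mM Tricine-NaOH pH 8.5, 20 mM MgCl2 for ~20 min at 28 °C, with compounds in DMSO. Oxidised plus reduced MFBQ was quantified by TLC phosphorimaging. Results are percent inhibition versus no-inhibitor control across doses.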

[2] = target: T2, Arabidopsis HST (Arabidopsis thaliana, UniProt Q1ACB3); experiment: HST total extraction (non TLC) assay, recombinant Arabidopsis HST from insect cells; type: biochemical
T2 construct: GST (factor Xa cleavage site) (N); made in house; host or cells: Sf9 insect cells (baculovirus, pAcG3X), membrane fraction
T2 sequence (Q1ACB3 70-386): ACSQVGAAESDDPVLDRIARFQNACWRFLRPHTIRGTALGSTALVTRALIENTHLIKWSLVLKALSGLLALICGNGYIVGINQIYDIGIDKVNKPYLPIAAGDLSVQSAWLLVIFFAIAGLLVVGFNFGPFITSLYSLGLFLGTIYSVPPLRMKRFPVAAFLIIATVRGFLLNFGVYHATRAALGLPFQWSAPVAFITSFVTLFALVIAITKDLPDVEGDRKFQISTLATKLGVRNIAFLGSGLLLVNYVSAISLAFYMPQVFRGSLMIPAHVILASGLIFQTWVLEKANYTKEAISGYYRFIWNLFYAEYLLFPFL

[3] = system: tobacco (var Samsun) plantlets on liquid culture medium; experiment: HST + HPPD herbicide effects on tobacco seedlings on liquid culture medium; type: in vivo; conditions: for % Injury (bleaching), mesotrione by itself: 0.75% v/v DMSO; for % Injury (bleaching), mesotrione by itself / effect of low amounts of mesotrione on the injury down the dose response / % Injury, plus Mesotrione (0.0005 ppm) / % Injury, plus Mesotrione (0.001 ppm) / % Injury (bleaching), compound 2.13 only: liquid culture; for % Injury (bleaching), mesotrione by itself / % Injury, plus Mesotrione (0.0005 ppm) / % Injury, plus Mesotrione (0.001 ppm) / % Injury (bleaching), compound 2.13 only: 20 DAT; for effect of low amounts of mesotrione on the injury down the dose response: repeat experiments
Experimental: In an alternative herbicide test procedure tobacco (var Samsun) plantlets germinated aseptically in agar made up in 1/3 strength Murashige and Skoog salts medium are transferred after 4 d to float on top of 2.9 ml of sterile liquid culture medium (half strength Murashige and Skoog medium containing 30 mM sucrose) in wells of 12 well plates. Test compounds are added at various doses and bleaching damage is assessed after 14-20 DAT. The plantlets are kept covered under clear perspex and grown at 18° C. (night) and 24° C. (day) under a 1611 day (˜500-900 umol/m^2), 8 h darkness regime Plantlets continue to grow and produce new tissue over the 14-20 DAT period but are bleached and grow less in the presence of controlling concentrations of herbicide.

[4] = TLC, estimated amount of MFBQ formed, relative to controls
[5] = 3 point dose curves only conducted at 50 μM HPP
[6] = 25 ppm, TLC, estimated amount of MFBQ formed, relative to controls
[7] = 0.19 ppm + mesotrione 0.001 ppm, liquid culture medium, 14 DAT
[8] = 0.19 ppm, liquid culture medium, 14 DAT
[9] = 0.58 ppm + mesotrione 0.001 ppm, liquid culture medium, 14 DAT
[10] = 0.58 ppm, liquid culture medium, 14 DAT
[11] = 1.7 ppm + mesotrione 0.001 ppm, liquid culture medium, 14 DAT
[12] = 1.7 ppm, liquid culture medium, 14 DAT
[13] = 5.2 ppm + mesotrione 0.001 ppm, liquid culture medium, 14 DAT
[14] = 5.2 ppm, liquid culture medium, 14 DAT
[15] = 16 ppm + mesotrione 0.001 ppm, liquid culture medium, 14 DAT
[16] = 16 ppm, liquid culture medium, 14 DAT
[17] = 47 ppm + mesotrione 0.001 ppm, liquid culture medium, 14 DAT
[18] = 47 ppm, liquid culture medium, 14 DAT
[19] = range of rates of compound 2.13 plus the higher dose of mesotrione

O=c1c(-c2c(F)ccc(F)c2Cl)c(O)c2nccnc2n1CC(F)F [Compound 2.3]
Chlamydomonas. HST % I at 10 ppm [1, 4]: 40% | Chlamydomonas. HST % I at 100 ppm [1, 4]: 85% | Estimated IC50 (ppm) [2, 5]: 19* ppm

O=c1c(-c2c(F)ccc(Br)c2Cl)c(O)c2nccnc2n1CC(F)F [Compound 2.8]
inhibition at 25 ppm [1, 6]: 85% | Estimated IC50 (ppm) [2]: 12 ppm

CS(=O)(=O)c1ccc(C(=O)C2C(=O)CCCC2=O)c([N+](=O)[O-])c1 [Mesotrione, mesotrione, reference compound]
damage by mesotrione alone ([3]; lower dose of mesotrione used in the mixtures): no visible damage | % Injury (bleaching), mesotrione by itself ([3]; mesotrione 0.0005 ppm): 0% | % bleaching, mesotrione by itself ([3]; mesotrione 0.001 ppm, 0.75% DMSO, liquid culture medium, 14 DAT): 5% | % Injury (bleaching), mesotrione by itself ([3]; mesotrione 0.001 ppm): 20%

O=c1c(-c2cc(C(F)(F)F)ccc2Cl)c(O)c2nccnc2n1CC(F)F [Compound 2.9]
inhibition at 25 ppm [1, 6]: 90% | Estimated IC50 (ppm) [2]: 6 ppm

O=c1c(-c2c(F)ccc(Br)c2Cl)c(O)c2cccnc2n1CC(F)F [Compound 2.15]
Estimated IC50 (ppm) [2]: 12 ppm | % bleaching, +mesotrione 0.001 ppm [3, 7]: 0% | % bleaching, HST herbicide alone [3, 8]: 5% | % bleaching, +mesotrione 0.001 ppm [3, 9]: 5% | % bleaching, HST herbicide alone [3, 10]: 0% | % bleaching, +mesotrione 0.001 ppm [3, 11]: 80% | % bleaching, HST herbicide alone [3, 12]: 5% | % bleaching, +mesotrione 0.001 ppm [3, 13]: 70% | % bleaching, HST herbicide alone [3, 14]: 40% | % bleaching, +mesotrione 0.001 ppm [3, 15]: 100% | % bleaching, HST herbicide alone [3, 16]: 100% | % bleaching, +mesotrione 0.001 ppm [3, 17]: 100% | % bleaching, HST herbicide alone [3, 18]: 100% | effect of low amounts of mesotrione on the injury down the dose response [3]: clear synergistic effects

O=c1c(-c2c(F)ccc(F)c2Cl)c(O)c2cccnc2n1CC(F)F [Compound 2.13]
Chlamydomonas. HST % I at 25 ppm [1, 6]: 60% | Estimated IC50 (ppm) [2, 5]: 54* ppm | % Injury, plus Mesotrione (0.0005 ppm) ([3]; compound 2.13 0.01 ppm + mesotrione 0.0005 ppm): 0% | % Injury, plus Mesotrione (0.001 ppm) ([3]; compound 2.13 0.01 ppm + mesotrione 0.001 ppm): 40% | % Injury (bleaching), compound 2.13 only ([3]; compound 2.13 0.01 ppm): 0% | % Injury, plus Mesotrione (0.0005 ppm) ([3]; compound 2.13 0.03 ppm + mesotrione 0.0005 ppm): 0% | % Injury, plus Mesotrione (0.001 ppm) ([3]; compound 2.13 0.03 ppm + mesotrione 0.001 ppm): 60% | % Injury (bleaching), compound 2.13 only ([3]; compound 2.13 0.03 ppm): 0% | % Injury, plus Mesotrione (0.0005 ppm) ([3]; compound 2.13 0.09 ppm + mesotrione 0.0005 ppm): 0% | % Injury, plus Mesotrione (0.001 ppm) ([3]; compound 2.13 0.09 ppm + mesotrione 0.001 ppm): 80% | % Injury (bleaching), compound 2.13 only ([3]; compound 2.13 0.09 ppm): 0% | % Injury, plus Mesotrione (0.0005 ppm) ([3]; compound 2.13 0.28 ppm + mesotrione 0.0005 ppm): 0% | % Injury, plus Mesotrione (0.001 ppm) ([3]; compound 2.13 0.28 ppm + mesotrione 0.001 ppm): 80% | % Injury (bleaching), compound 2.13 only ([3]; compound 2.13 0.28 ppm): 0% | % Injury, plus Mesotrione (0.0005 ppm) ([3]; compound 2.13 0.85 ppm + mesotrione 0.0005 ppm): 40% | % Injury, plus Mesotrione (0.001 ppm) ([3]; compound 2.13 0.85 ppm + mesotrione 0.001 ppm): 90% | % Injury (bleaching), compound 2.13 only ([3]; compound 2.13 0.85 ppm): 0% | % Injury, plus Mesotrione (0.0005 ppm) ([3]; compound 2.13 2.56 ppm + mesotrione 0.0005 ppm): 90% | % Injury, plus Mesotrione (0.001 ppm) ([3]; compound 2.13 2.56 ppm + mesotrione 0.001 ppm): 90% | % Injury (bleaching), compound 2.13 only ([3]; compound 2.13 2.56 ppm): 0% | % Injury, plus Mesotrione (0.0005 ppm) ([3]; compound 2.13 7.67 ppm + mesotrione 0.0005 ppm): 100% | % Injury, plus Mesotrione (0.001 ppm) ([3]; compound 2.13 7.67 ppm + mesotrione 0.001 ppm): 100% | % Injury (bleaching), compound 2.13 only ([3]; compound 2.13 7.67 ppm): 50% | % Injury, plus Mesotrione (0.0005 ppm) ([3]; compound 2.13 23 ppm + mesotrione 0.0005 ppm): 100% | % Injury, plus Mesotrione (0.001 ppm) ([3]; compound 2.13 23 ppm + mesotrione 0.001 ppm): 100% | % Injury (bleaching), compound 2.13 only ([3]; compound 2.13 23 ppm): 100% | bleaching expected (Colby) [3, 19]: 20% | bleaching observed [3, 19]: 80% and 90%

O=c1c(-c2c(Cl)ccc(Cl)c2Cl)c(O)c2nccnc2n1CC(F)F [Compound 2.14]
inhibition at 25 ppm [1, 6]: 85% | Estimated IC50 (ppm) [2]: 9 ppm

Oc1c(Cl)c(F)nc(F)c1Cl [Compound 1.1, haloxydine]
Chlamydomonas. HST % I at 10 ppm [1, 4]: 70% | inhibition at 25 ppm [1, 6]: 80% | Chlamydomonas. HST % I at 100 ppm [1, 4]: 95% | inhibition of the HST enzyme reaction (MFBQ and other products) ([1]; 500 ppm, stated for the HST enzyme preparations assayed): completely inhibits | % bleaching, +mesotrione 0.001 ppm [3, 7]: 100% | % bleaching, HST herbicide alone [3, 8]: 50% | % bleaching, +mesotrione 0.001 ppm [3, 9]: 100% | % bleaching, HST herbicide alone [3, 10]: 90% | % bleaching, +mesotrione 0.001 ppm [3, 11]: 100% | % bleaching, HST herbicide alone [3, 12]: 100% | % bleaching, +mesotrione 0.001 ppm [3, 13]: 100% | % bleaching, HST herbicide alone [3, 14]: 100% | % bleaching, +mesotrione 0.001 ppm [3, 15]: 100% | % bleaching, HST herbicide alone [3, 16]: 100% | % bleaching, +mesotrione 0.001 ppm [3, 17]: 100% | % bleaching, HST herbicide alone [3, 18]: 100% | effect of low amounts of mesotrione on the injury down the dose response [3]: clear synergistic effects
